Non-standard residues stand in square brackets, D forms with d. Residues, ends and D or L forms follow the SMILES beside them. *: point of attachment. DOTA = O=C(O)CN1CCN(CC(=O)O)CCN(CC(=O)*)CCN(CC(=O)O)CC1; Nle = CCCC[C@H](N)C(=O)O
How the values were obtained:
[1] = in vivo; cited from earlier work
B16-F1 cells = assay: Internalization by cultured B16-F1 cells; type: cell-based, mouse; conditions: 37°C, 0.5, 2 and 3.5 h, 74 kBq radioligand
Description: B16-F1 cells were seeded in six-well plates and incubated overnight in MEM at 37°C. For the internalization experiments, MEM was replaced by 1 mL MBM (see above) as internalization buffer. After a 1-h incubation at 37°C, 74 kBq of radioligand (^111In-labeled peptides) was added, and the plates were incubated for different time periods. Non-specific internalization was determined by addition of 50 µL of a 1 µM α-MSH solution to the incubation mixture. After the desired incubation times, the cells were extensively washed with MBM kept at 37°C to remove excess radioligand. Incubation in 2 mL ice-cold acid buffer (acetate-buffered Hank’s balanced salt solution, pH 5) for 10 min allowed dissociation of surface-bound ligand. After collection of the acid buffer fraction, the cells were rinsed once with cold MBM, and the washings were pooled with the acid buffer fraction. The cells were washed again with MBM kept at 37°C, lysed in a 1% Triton X-100 solution, and finally transferred to tubes for quantification. The radioactivity of all collected fractions was measured in a γ-counter. A counting plate underwent the same treatment as the plate incubated for the longest time, but its cells were detached with 0.02% EDTA in PBS instead of being lysed with the Triton X-100 solution. Cells from three wells were collected, counted, and thus allowed for normalization of the results obtained. Results were expressed as percent of the added dose per million cells.
Figure 3 Determination of internalization of [^111In] DOTA-NAP-D-Asp-D-Asp (A) and [^111In]DOTA-Phospho-MSH2-9 (B) by cultured B16-F1 cells exposed to the peptides at 37°C for 0.5, 2, and 3.5 h. Surface-bound radioligand was released by an acid buffer wash, and internalized radioligand was determined by lysing cells with detergent. Results are expressed in percent of the added dose per million cells.

Compound	Tumor and non-tumor tissue uptake (in words) [1]	Internalization profile (in words) (B16-F1 cells)
CCCC[C@H](NC(C)=O)C(=O)N[C@@H](CC(=O)O)C(=O)N[C@@H](Cc1c[nH]cn1)C(=O)N[C@H](Cc1ccccc1)C(=O)N[C@@H](CCCNC(=N)N)C(=O)N[C@@H](Cc1c[nH]c2ccccc12)C(=O)NCC(=O)N[C@@H](CCCCNC(=O)CN1CCN(CC(=O)O)CCN(CC(=O)O)CCN(CC(=O)O)CC1)C(N)=O [DOTA-NAP-amide, [Ac-Nle^4,Asp^5,D-Phe^7,Lys^11(DOTA)]-α-MSH4-11, reference compound]	highest tumor uptake paired with minimal non-tumor tissue uptake, except for the kidneys	–
CCCC[C@H](NC(C)=O)C(=O)N[C@@H](CC(=O)O)C(=O)N[C@@H](Cc1c[nH]cn1)C(=O)N[C@H](Cc1ccccc1)C(=O)N[C@@H](CCCNC(=N)N)C(=O)N[C@@H](Cc1c[nH]c2ccccc12)C(=O)NCC(=O)N[C@@H](CCCCNC(=O)CN1CCN(CC(=O)O)CCN(CC(=O)O)CCN(CC(=O)O)CC1)C(=O)N[C@H](CC(=O)O)C(=O)N[C@H](CC(=O)O)C(=O)O [DOTA-NAP-D-Asp-D-Asp, Ac-Nle-Asp-His-D-Phe-Arg-Trp-Gly-Lys(DOTA)-D-Asp-D-Asp-OH] (Ac-[Nle]DH[dF]RWGK(DOTA)[dD][dD]-OH)	–	rapid internalization
